Consider 14 molecules from ChEMBL document CHEMBL5230123, “A comprehensive review of monoamine oxidase inhibitors as Anti-Alzheimer's disease agents: A review” (Eur J Med Chem, 2020).

pIC50, pKi: −log10 of the molar value.

Data set [1] addresses T1, Amine oxidase [flavin-containing] B (Homo sapiens, UniProt P27338).
T1 sequence (P27338 whole entry): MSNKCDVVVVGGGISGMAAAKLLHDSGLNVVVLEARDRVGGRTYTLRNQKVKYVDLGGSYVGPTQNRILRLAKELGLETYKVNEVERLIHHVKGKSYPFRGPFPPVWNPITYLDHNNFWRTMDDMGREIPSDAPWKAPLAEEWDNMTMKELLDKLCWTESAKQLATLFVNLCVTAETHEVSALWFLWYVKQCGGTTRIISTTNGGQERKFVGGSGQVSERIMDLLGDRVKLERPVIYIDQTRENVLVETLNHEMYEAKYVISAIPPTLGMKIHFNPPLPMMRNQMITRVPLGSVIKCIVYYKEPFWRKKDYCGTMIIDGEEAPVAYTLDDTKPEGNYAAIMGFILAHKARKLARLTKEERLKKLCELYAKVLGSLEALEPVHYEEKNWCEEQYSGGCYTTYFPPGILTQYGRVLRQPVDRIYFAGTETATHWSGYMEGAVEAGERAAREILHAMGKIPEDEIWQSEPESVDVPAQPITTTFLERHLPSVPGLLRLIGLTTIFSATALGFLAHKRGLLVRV
Briefly: Inhibition of MAO-B (unknown origin) using tyramine hydrochloride as substrate incubated for 30 mins followed by substrate addition and measured after 5 mins by spectrophotometric assay.

Data set [2] deals with Acetylcholinesterase (Electrophorus electricus) (UniProt O42275). Briefly: Inhibition of electric eel AChE using acetylthiocholine iodide as substrate at 1 uM preincubated for 5 mins followed by substrate addition and measured for 20 mins by DTNB reagent based Ellman's method. (In Ellman's method for cholinesterases, released thiocholine reacts with DTNB.)
Sequence of Acetylcholinesterase (Electrophorus electricus) (O42275 24-633 limits assumed): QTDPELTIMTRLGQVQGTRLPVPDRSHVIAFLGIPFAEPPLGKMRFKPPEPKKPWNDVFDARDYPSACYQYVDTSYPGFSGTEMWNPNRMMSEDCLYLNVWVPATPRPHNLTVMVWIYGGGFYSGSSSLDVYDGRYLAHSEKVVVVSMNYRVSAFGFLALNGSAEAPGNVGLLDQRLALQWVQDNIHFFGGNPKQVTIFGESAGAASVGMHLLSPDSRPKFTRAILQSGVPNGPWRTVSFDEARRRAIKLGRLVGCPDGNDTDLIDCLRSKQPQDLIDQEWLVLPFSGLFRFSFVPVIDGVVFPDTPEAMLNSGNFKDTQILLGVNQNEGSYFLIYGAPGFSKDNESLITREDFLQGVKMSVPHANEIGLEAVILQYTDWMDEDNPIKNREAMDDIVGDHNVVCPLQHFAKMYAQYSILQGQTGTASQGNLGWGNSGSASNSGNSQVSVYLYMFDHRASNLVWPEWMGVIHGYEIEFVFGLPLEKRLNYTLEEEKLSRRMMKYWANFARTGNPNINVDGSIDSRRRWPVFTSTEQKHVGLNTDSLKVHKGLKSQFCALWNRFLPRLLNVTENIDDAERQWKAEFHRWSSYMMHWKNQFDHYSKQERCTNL
Data set [3] addresses T1, Amine oxidase [flavin-containing] B. Briefly: Inhibition of human MAO-B using tyramine as substrate by amplex red assay.
Data set [4] shares this target. Briefly: Inhibition of MAO-B (unknown origin) using as tyramine as substrate by Ampliflu red reagent based fluorometric method.
For data set [5] the target is unchanged. Put plainly: Inhibition of MAO-B (unknown origin) using kynuramine as substrate preincubated for 10 mins followed by substrate addition and measured after 20 mins by fluorescence microplate reader assay.
The target in data set [6] is Acetylcholinesterase (Electrophorus electricus, UniProt O42275). Briefly: Inhibition of electric eel AChE using acetylthiocholine iodide as substrate incubated for 6 mins followed by substrate addition by DTNB reagent based Ellman's method.
Sequence of Acetylcholinesterase (Electrophorus electricus, UniProt O42275) (O42275 whole entry): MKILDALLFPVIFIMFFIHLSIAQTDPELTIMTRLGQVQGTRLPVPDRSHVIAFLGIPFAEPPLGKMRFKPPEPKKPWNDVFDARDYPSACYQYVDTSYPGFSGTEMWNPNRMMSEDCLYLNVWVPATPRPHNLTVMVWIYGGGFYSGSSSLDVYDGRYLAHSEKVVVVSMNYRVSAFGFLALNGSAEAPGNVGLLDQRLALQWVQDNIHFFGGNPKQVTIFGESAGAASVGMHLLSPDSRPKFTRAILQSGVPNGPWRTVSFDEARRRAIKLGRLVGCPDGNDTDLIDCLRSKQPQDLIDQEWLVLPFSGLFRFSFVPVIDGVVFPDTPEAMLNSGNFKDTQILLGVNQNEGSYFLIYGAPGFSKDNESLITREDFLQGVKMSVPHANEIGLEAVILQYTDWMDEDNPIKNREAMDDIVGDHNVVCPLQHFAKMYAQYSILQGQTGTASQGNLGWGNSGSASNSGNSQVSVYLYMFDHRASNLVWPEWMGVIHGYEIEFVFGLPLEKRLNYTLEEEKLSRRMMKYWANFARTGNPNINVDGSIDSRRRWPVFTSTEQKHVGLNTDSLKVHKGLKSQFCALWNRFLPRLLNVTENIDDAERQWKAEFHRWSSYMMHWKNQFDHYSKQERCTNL
Data set [7] deals with Cholinesterase (Equus caballus) (UniProt P81908). Put plainly: Inhibition of horse serum BuChE using butyrylthiocholine iodide as substrate at 10 uM incubated for 6 mins followed by substrate addition by DTNB reagent based Ellman's method.
Sequence of Cholinesterase (Equus caballus) (P81908 whole entry): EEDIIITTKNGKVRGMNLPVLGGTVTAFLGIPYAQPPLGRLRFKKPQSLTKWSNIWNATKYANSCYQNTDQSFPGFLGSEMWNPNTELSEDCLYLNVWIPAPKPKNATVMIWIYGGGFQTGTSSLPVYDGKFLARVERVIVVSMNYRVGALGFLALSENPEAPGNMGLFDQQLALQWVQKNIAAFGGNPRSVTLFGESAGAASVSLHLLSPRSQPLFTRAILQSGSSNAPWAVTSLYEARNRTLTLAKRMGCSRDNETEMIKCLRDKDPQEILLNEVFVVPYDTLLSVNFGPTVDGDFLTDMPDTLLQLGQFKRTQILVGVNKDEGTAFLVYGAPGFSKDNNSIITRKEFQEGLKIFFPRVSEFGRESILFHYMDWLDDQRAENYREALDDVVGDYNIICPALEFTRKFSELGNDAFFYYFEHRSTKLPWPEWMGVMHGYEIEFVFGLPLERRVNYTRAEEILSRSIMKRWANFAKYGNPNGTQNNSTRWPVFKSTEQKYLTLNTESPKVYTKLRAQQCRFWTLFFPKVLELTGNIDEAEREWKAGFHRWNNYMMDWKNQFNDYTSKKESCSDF
Data set [8] has as its target T2, Amine oxidase [flavin-containing] A (Homo sapiens, UniProt P21397).
T2 sequence (P21397 whole entry): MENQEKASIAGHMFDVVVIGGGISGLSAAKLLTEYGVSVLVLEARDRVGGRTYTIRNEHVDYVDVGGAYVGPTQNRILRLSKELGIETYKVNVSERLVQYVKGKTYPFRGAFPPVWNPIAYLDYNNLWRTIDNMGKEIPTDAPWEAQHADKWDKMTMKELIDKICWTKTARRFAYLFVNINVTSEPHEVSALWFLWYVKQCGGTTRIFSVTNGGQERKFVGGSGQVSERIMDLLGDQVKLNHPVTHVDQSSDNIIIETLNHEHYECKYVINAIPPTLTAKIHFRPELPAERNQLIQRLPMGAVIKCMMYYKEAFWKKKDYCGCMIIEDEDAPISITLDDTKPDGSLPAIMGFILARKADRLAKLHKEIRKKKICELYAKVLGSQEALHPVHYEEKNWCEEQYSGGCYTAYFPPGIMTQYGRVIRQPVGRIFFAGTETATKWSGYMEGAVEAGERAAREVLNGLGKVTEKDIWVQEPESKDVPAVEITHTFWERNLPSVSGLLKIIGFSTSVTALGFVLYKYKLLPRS
Put plainly: Inhibition of recombinant human MAO-A using p-tyramine as substrate incubated for 15 mins followed by substrate addition and measured for 15 to 20 mins by Amplex Red assay.

For data set [9], the target named is T1, Amine oxidase [flavin-containing] B. Put plainly: Inhibition of recombinant human MAO-B using p-tyramine as substrate incubated for 15 mins followed by substrate addition and measured upto 20 mins by Amplex Red assay.
In data set [10] the target is T2, Amine oxidase [flavin-containing] A. Briefly: Inhibition of recombinant human MAO-A using kynuramine as substrate incubated for 10 mins followed by substrate addition and measured for 20 mins by Fluorescence microplate reader assay.
Data set [11] addresses T1, Amine oxidase [flavin-containing] B. Briefly: Inhibition of recombinant human MAO-B expressed in baculovirus-infected BTI insect cells using p-tyramine as substrate incubated for 45 mins by fluorescence assay.
Data set [12] concerns the target T3, Acetylcholinesterase (Mus musculus, UniProt P21836).
T3 sequence (P21836 whole entry): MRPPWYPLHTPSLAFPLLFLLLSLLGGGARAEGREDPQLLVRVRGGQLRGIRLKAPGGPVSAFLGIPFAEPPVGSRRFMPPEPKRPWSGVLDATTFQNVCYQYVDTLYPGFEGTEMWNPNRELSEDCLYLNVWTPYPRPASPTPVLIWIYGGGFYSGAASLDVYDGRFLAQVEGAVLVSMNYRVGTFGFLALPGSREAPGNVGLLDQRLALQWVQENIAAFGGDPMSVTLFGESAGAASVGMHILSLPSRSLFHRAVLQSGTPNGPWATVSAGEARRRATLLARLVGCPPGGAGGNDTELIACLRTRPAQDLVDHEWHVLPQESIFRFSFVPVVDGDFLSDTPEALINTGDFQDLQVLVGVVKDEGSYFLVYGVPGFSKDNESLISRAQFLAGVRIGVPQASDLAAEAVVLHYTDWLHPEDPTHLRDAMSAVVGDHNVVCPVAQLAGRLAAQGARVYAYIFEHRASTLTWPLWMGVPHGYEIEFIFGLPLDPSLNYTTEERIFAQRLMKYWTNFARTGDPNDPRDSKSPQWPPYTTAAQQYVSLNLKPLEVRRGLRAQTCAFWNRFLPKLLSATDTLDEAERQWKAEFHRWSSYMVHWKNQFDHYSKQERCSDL
Put plainly: Inhibition of mouse AChE using acetylthiocholine iodide as substrate incubated for 20 mins by DTNB reagent based Ellman's method.

In data set [13] the target is T1, Amine oxidase [flavin-containing] B. Briefly: Inhibition of human MAO-B using benzylamine as substrate preincubated for 15 mins followed by substrate addition and measured after 15 mins by fluorescence assay.
Data set [14] can be described thus: Oral bioavailability in ICR mouse at 10 mg/kg and measured after 24 hrs by HPLC analysis. To be noted: in vivo. In kind it is ADME, organism-based.
Data set [15] has as its target T2, Amine oxidase [flavin-containing] A. Put plainly: Inhibition of recombinant human MAO-A using kynuramine as substrate incubated for 20 mins by fluorescence spectrophotometric assay.
The target of data set [16] is T1, Amine oxidase [flavin-containing] B. Briefly: Inhibition of recombinant human MAO-B using kynuramine as substrate incubated for 20 mins by fluorescence spectrophotometric assay.
Data set [17] has the same target. Briefly: Competitive inhibition of recombinant human MAO-B using kynuramine as substrate incubated for 20 mins by Lineweaver-Burk plot analysis.

Turning to `CN1CCN(c2ccc(/C=N/Nc3ccccc3)cc2)CC1`, the pIC50 in data set [1] was 7.55.

In [2], `O=c1ccc2ccc(OCCN3CCCCC3)cc2o1` returned an inhibition of 30.9%.

Take `Cc1ccc(C2=NOC(c3ccc(Cl)c(Cl)c3)C2)cc1` (stereo unspecified): the pIC50 in data set [3] is 7.92.

`Cc1c(/N=C/c2cccc([N+](=O)[O-])c2)c(=O)n(-c2ccccc2)n1C`: in [4], the pIC50 is 7.27.

In data set [5], `CCOc1ccc([N+](=O)[O-])c(N/N=C/c2ccco2)n1` had a pIC50 of 4.97.

Take `Cc1c(Cl)c(=O)oc2cc(OCCCSC(=S)N3C(C)CCCC3C)ccc12` (stereo unspecified): the pIC50 at Acetylcholinesterase [6] was 7.36; in data set [8], 5.23; in data set [9] it was 7.00. The same molecule gave an inhibition in data set [7] of 23.3%.

Turning to `O=c1c(O)c(-c2ccc(O)c(O)c2)oc2cc(O)cc(O)c12` [QUERCETIN], in data set [10], the pIC50 is 5.82.

Take `CCOc1ccc([N+](=O)[O-])c(N/N=C/c2ccccn2)n1`: the pIC50 in [10] is 5.02.

The molecule `Cc1c(/N=C/c2ccc(O)cc2)c(=O)n(-c2ccccc2)n1C` gave a pIC50 in data set [4] of 6.94.

In the case of `COc1cc(-c2cc(=O)c3c(O)cc(O)cc3o2)cc(OC)c1O` [TRICIN], in data set [10], the pIC50 was 6.60.

For the molecule `Cn1ccc2cc(C(=S)Nc3ccc(F)cc3)ccc21`, the pIC50 in [11] was 7.55.

For the molecule `O=c1c(O)c(-c2cc(O)c(O)c(O)c2)oc2cc(O)cc(O)c12` [MYRICETIN], the pIC50 in [10] is 5.00.

For the molecule `C#CCNCc1ccc2c(c1)ncn2-c1cc(NC(=S)NCC)ncn1`, the pIC50 was 7.49 at Acetylcholinesterase [12] and 5.67 in [13]. In data set [14], the bioavailability stood at 45.5%.

In the case of `O=C1Oc2ccccc2C(=O)/C1=C/NCc1ccccc1`, the figures for the pIC50 in [15] and in data set [16] were 4.11 and 6.20, respectively. Moreover, in [17], the pKi is 4.03.

In general, pIC50 refers to the IC50 on a negative log10 scale, so that one unit is a factor of ten. In general, inhibition refers to the relative decrease from the control value, in per cent. Low values mean a response near the control, high ones a response far below the control. Broadly, the bioavailability is the share of a dose that reaches the circulation, judged against a reference dose that is usually intravenous. The low end stands for poor availability, the high end for good availability. The pKi is −log10 of the Ki, conventionally taken in molar units.
